In test [1] the test system is Porphyromonas gingivalis. In words: Inhibition of Porphyromonas gingivalis recombinant SerB653 phosphatase expressed in Escherichia coli BL21 using phosphoserine as substrate at 50 uM after 1 hr by malachite green colorimetric assay.
A short description of test [2]: Inhibition of Porphyromonas gingivalis recombinant SerB653 phosphatase expressed in Escherichia coli BL21 using phosphoserine as substrate measured every 10 secs by malachite green colorimetric assay.
The nature of test [3]: Inhibition of Porphyromonas gingivalis recombinant SerB653 phosphatase expressed in Escherichia coli BL21 using phosphoserine as substrate after 1 hr by malachite green colorimetric assay.

For 23 compounds, inhibition, Ki and IC50 results are on record in ChEMBL document CHEMBL2010789, “Identification of 3-acyl-2-phenylamino-1,4-dihydroquinolin-4-one derivatives as inhibitors of the phosphatase SerB653 in Porphyromonas gingivalis, implicated in periodontitis” (Bioorg Med Chem Lett, 2012).

By inhibition is commonly meant the share of the control response that was lost under treatment. One may read the Ki as the dissociation constant of the complex between target and ligand, obtained from inhibition or displacement. The term IC50 denotes the point on the concentration scale where inhibition reaches its midpoint. In the case of `O=C(c1c(Nc2ccc(Cl)c(Cl)c2)[nH]c2c(Cl)ccc(Cl)c2c1=O)C1CC1`, in test [1], the inhibition came to 89.7%. Further, the Ki in test [2] was found to be 4.1 µM. In addition, in test [3], the IC50 was 11.5 µM.
The matching figures for `O=C(c1c(Nc2ccc(F)cc2F)[nH]c2c(Cl)ccc([N+](=O)[O-])c2c1=O)C1CC1`: 85.6%, 4 µM and 11.3 µM.
The matching figures for `CC(=O)c1c(Nc2ccc(Cl)cc2)[nH]c2c(C(F)(F)F)cc(Cl)cc2c1=O`: 95.7%, 2.7 µM and 7.5 µM.
For `CC(C)C(=O)c1c(Nc2cc(F)cc(F)c2)[nH]c2c(Cl)ccc([N+](=O)[O-])c2c1=O`, the inhibition in test [1] is 94.7%. In test [3], the IC50 was determined as 19.1 µM.
The matching figures for `CC(C)CC(=O)c1c(Nc2cc(Cl)cc(Cl)c2)[nH]c2c(Cl)ccc([N+](=O)[O-])c2c1=O`: 99.1% and 18.7 µM.
The matching figures for `O=C(c1c(Nc2ccc(Cl)cc2F)[nH]c2c(Cl)ccc([N+](=O)[O-])c2c1=O)C1CC1`: 95.5% and 18.7 µM.
Regarding `CC(=O)c1c(Nc2cccc(Cl)c2Cl)[nH]c2c(Cl)ccc([N+](=O)[O-])c2c1=O`, the inhibition in test [1] was 96.7%. Further, the IC50 in test [3] was 19.6 µM.
The matching figures for `CC(=O)c1c(Nc2cc(F)cc(F)c2)[nH]c2c([N+](=O)[O-])cc(Cl)cc2c1=O`: 92.2% and 17.6 µM.
The matching figures for `CC(=O)c1c(Nc2ccc([N+](=O)[O-])cc2)[nH]c2c([N+](=O)[O-])cc(Cl)cc2c1=O`: 87% and 14.5 µM.
The matching figures for `CC(C)CC(=O)c1c(Nc2ccc(Cl)cc2Cl)[nH]c2c(Cl)ccc([N+](=O)[O-])c2c1=O`: 97.8% and 19.6 µM.
Consider `CC(C)CC(=O)c1c(Nc2cccc(Cl)c2Cl)[nH]c2c(Cl)ccc([N+](=O)[O-])c2c1=O`, for which the inhibition in test [1] worked out at 98.6%. Also, the IC50 in test [3] turned out to be 18.9 µM.
The matching figures for `CC(C)C(=O)c1c(Nc2cc(Cl)cc(Cl)c2)[nH]c2c(Cl)ccc([N+](=O)[O-])c2c1=O`: 99.1% and 17.9 µM.
The matching figures for `O=C(c1c(Nc2cc(Cl)cc(Cl)c2)[nH]c2c(Cl)ccc([N+](=O)[O-])c2c1=O)C1CC1`: 99.4% and 17 µM.
The matching figures for `CC(=O)c1c(Nc2cc(Cl)cc(Cl)c2)[nH]c2c(Cl)ccc([N+](=O)[O-])c2c1=O`: 99.3% and 18.8 µM.
`CC(C)C(=O)c1c(Nc2cc(Cl)ccc2Cl)[nH]c2c(Cl)ccc([N+](=O)[O-])c2c1=O`: the inhibition in test [1] was 97.3%. Moreover, in test [3], the IC50 was determined as 19 µM.
The matching figures for `CC(=O)c1c(Nc2cc(Cl)ccc2Cl)[nH]c2c(Cl)ccc(Cl)c2c1=O`: 86.6% and 16.7 µM.
For the compound `CC(=O)c1c(Nc2cc(Cl)ccc2Cl)[nH]c2c(Cl)ccc([N+](=O)[O-])c2c1=O`, the inhibition in test [1] amounted to 98.3%. The IC50 in test [3] came out at 19 µM.
In the case of `CC(=O)c1c(Nc2cc(F)cc(F)c2)[nH]c2c(Cl)c(Cl)ccc2c1=O`, the inhibition in test [1] worked out at 93.5%. Besides, the IC50 in test [3] was 18.6 µM.
The matching figures for `CC(C)CC(=O)c1c(Nc2cc(F)ccc2F)[nH]c2c(Cl)ccc(Cl)c2c1=O`: 91% and 19.3 µM.
The matching figures for `CC(=O)c1c(Nc2ccccc2Cl)[nH]c2c(C(F)(F)F)cc(Cl)cc2c1=O`: 89.1% and 16.8 µM.
The matching figures for `CC(C)CC(=O)c1c(Nc2cc(F)cc(F)c2)[nH]c2c(Cl)ccc([N+](=O)[O-])c2c1=O`: 97.5% and 16.3 µM.
On to `CCC(=O)c1c(Nc2ccc(Cl)cc2Cl)[nH]c2c(Cl)ccc([N+](=O)[O-])c2c1=O`, for which the inhibition in test [1] was determined as 97.4%. Also, in test [3], the IC50 turned out to be 19.6 µM.
Consider `O=C(c1c(Nc2cc(Cl)ccc2Cl)[nH]c2c(Cl)ccc([N+](=O)[O-])c2c1=O)C1CC1`, for which the inhibition in test [1] amounted to 98.2%. In test [3], the IC50 worked out at 18.7 µM.
